Experimental data as given in US8435928B2, “Herbicidal composition” (Ishihara Sangyo Kaisha, Ltd., priority 2007, dated 2013).

Tests used:
[1] = test system: crabgrass; test: Test Example 8: foliar application of compound No. 2-6 wettable powder with surfactant, crabgrass; type: in vivo, Digitaria sanguinalis L.; conditions: 15 g a.i./ha wettable powder, 21st day
From the text: (§1) On the 21st day after the application, the state of growth of the plants was visually observed (growth inhibition rate (%)=0 (the same as the untreated plot) to 100 (complete kill)), and the results as shown in Tables b1 and b2 were obtained.
(§2) Upland field soil was put into a 1/1,000,000 ha pot, and seeds of bamyardgrass (Echinochloa crus-galli L) and crabgrass were respectively sown and grown in a greenhouse. When barnyardgrass reached 4.0 to 4.5 leaf stage and crabgrass reached 4.0 to 5.0 leaf stage, a prescribed amount (15 g a.i./ha) of a wettable powder comprising compound No. 2-6 as an active ingredient, prepared in accordance with the above Example 1, was diluted with water corresponding to 300 L/ha (containing 0.05 vol % of a surfactant containing the POA alkyl ether phosphate), followed by foliar application. Further, for comparison, foliar application was carried out in the same manner by using SILWETT L-77 (tradename.) at a concentration of 0.1 vol % instead of the above surfactant.
(§3) On the 21st day after the application, the state of growth of the plants was evaluated in the same manner as in Test Example 1, and the results as shown in Tables b11 and b12 were obtained.

[2] = test system: bamyardgrass (Echinochloa crus-galli L); test: Test Example 8: foliar application of compound No. 2-6 wettable powder with surfactant, barnyardgrass; type: in vivo; conditions: 15 g a.i./ha wettable powder, 21st day
From the text: as §1, §2, §3

[3] = test system: bamyardgrass (Echinochloa crus-galli L); test: Test Example 10: foliar application of compound No. 2-185 wettable powder with surfactant, barnyardgrass; type: in vivo; conditions: 15 g a.i./ha wettable powder, 21st day
From the text: as §1, §2
On the 21st day after the application, the state of growth of the plants was evaluated in the same manner as in Test Example 1, and the results as shown in Tables b11 and b12 were obtained. […]

[4] = test system: crabgrass; test: Test Example 10: foliar application of compound No. 2-185 wettable powder with surfactant, crabgrass; type: in vivo, Digitaria sanguinalis L.; conditions: 15 g a.i./ha wettable powder, 21st day
From the text: as §1, §2, §3
The results as shown in Tables b14 and b15 were obtained in the same manner as in the above Test Example 8 except that a prescribed amount (15 g a.i./ha) of a wettable powder comprising compound No. 2-185 as an active ingredient, prepared in accordance with the above Example 1, was used.

[5] = test system: barnyardgrass; test: Test Example 13: foliar application of compound No. 5-1 wettable powder with surfactant, barnyardgrass; type: in vivo, Echinochloa crus-galli L; conditions: 31 g a.i./ha wettable powder, 21st day
From the text: as §1
as §2, with “bamyardgrass” for “bamyardgrass (Echinochloa crus-galli L) and crabgrass”, “were” for “were respectively”, “leaf” for “leaf stage and crabgrass reached 4.0 to 5.0 leaf”, “(31” for “(15”, “5-1” for “2-6”, “(tradename)” for “(tradename.)”
On the 21st day after the application, the state of growth of the plant was evaluated in the same manner as in Test Example 1, and the results as shown in Table b18 were obtained.

[6] = test system: crabgrass; test: Test Example 5: foliar application of compound No. 3-31 wettable powder with surfactant, crabgrass; type: in vivo, Digitaria sanguinalis L.; conditions: foliar application at 4.5 to 5.0 leaf stage, visual, 21st day, 0 = same as untreated, 100 = complete kill
From the text: as §1
Upland field soil was put into a 1/1,000,000 ha pot, and seeds of crabgrass were sown and grown in a greenhouse. When crabgrass reached 4.5 to 5.0 leaf stage, a prescribed amount (30 g a.i./ha) of a water-based suspension concentrate comprising compound No. 238 as an active ingredient, prepared in accordance with the above Example 6, was diluted with water corresponding to 300 L/ha (containing 0.05 vol % of a surfactant containing the POA alkyl ether phosphate), followed by foliar application. Further, for comparison, foliar application was carried out in the same manner by using CITOWETT (tradename) at a concentration of 0.3 vol %, instead of the above surfactant.
On the 21st day after the application, the state of growth of the plant was evaluated in the same manner as in Test Example 1, and the results as shown in Table b5 were obtained.
The results as shown in Table b8 were obtained in the same manner as in the above Test Example 3 except that a prescribed amount (60 g a.i./ha) of a wettable powder comprising compound No. 3-31 as an active ingredient, prepared in accordance with the above Example 5, was used.

[7] = test system: crabgrass; test: Test Example 12: foliar application of compound No. 4-320 wettable powder with surfactant, crabgrass; type: in vivo, Digitaria sanguinalis L.; conditions: 15 g a.i./ha wettable powder, 21st day
From the text: as §1
as §2, with “of” for “of bamyardgrass (Echinochloa crus-galli L) and”, “were” for “were respectively”, “When” for “When barnyardgrass reached 4.0 to 4.5 leaf stage and”, “4-3” for “2-6”, “(tradename)” for “(tradename.)”
On the 21st day after the application, the state of growth of the plant was evaluated in the same manner as in Test Example 1, and the results as shown in Table b16 were obtained.
The results as shown in Tables b17 were obtained in the same manner as in the above Test Example 11 except that a prescribed amount (15 g a.i./ha) of a wettable powder comprising compound No. 4-320 as an active ingredient, prepared in accordance with the above Example 1, was used.

[8] = surfactant ADECA COL PS-440E 0.05 vol %, present invention
[9] = surfactant NIKKOL DDP-8 0.05 vol %, present invention
[10] = surfactant NIKKOL TDP-8 0.05 vol %, present invention
[11] = surfactant PHOSPHANOL ML-240 0.05 vol %, present invention
[12] = surfactant PHOSPHANOL RS-710 0.05 vol %, present invention
[13] = surfactant PLYSURF A219B 0.05 vol %, present invention
[14] = surfactant SILWETT L-77 0.1 vol %, comparison
[15] = surfactant PHOSPHOLAN PS-236 0.05 vol %, present invention

CCn1ncc(C(=O)c2ccc(S(C)(=O)=O)c(OCCOC)c2C)c1O [2-6]
Growth inhibition rate (%) of crabgrass [1, 8]: 75%
Growth inhibition rate (%) of crabgrass [1, 9]: 70%
Growth inhibition rate (%) of crabgrass [1, 10]: 73%
Growth inhibition rate (%) of crabgrass [1, 11]: 85%
Growth inhibition rate (%) of crabgrass [1, 12]: 70%
Growth inhibition rate (%) of crabgrass [1, 13]: 78%
Growth inhibition rate (%) of crabgrass [1, 14]: 40%
Growth inhibition rate (%) of barnyardgrass [2, 15]: 95%
Growth inhibition rate (%) of barnyardgrass [2, 14]: 10%

COCc1c(S(C)(=O)=O)ccc(C(=O)c2cnn(C)c2O)c1C [2-185]
Growth inhibition rate (%) of barnyardgrass [3, 15]: 80%
Growth inhibition rate (%) of barnyardgrass [3, 14]: 0%
Growth inhibition rate (%) of crabgrass [4, 9]: 70%
Growth inhibition rate (%) of crabgrass [4, 10]: 70%
Growth inhibition rate (%) of crabgrass [4, 11]: 70%
Growth inhibition rate (%) of crabgrass [4, 12]: 73%
Growth inhibition rate (%) of crabgrass [4, 13]: 70%
Growth inhibition rate (%) of crabgrass [4, 14]: 20%

COCCOCc1nc(C(F)(F)F)ccc1C(=O)C1C(=O)C2CCC(C2)C1=O (stereo not drawn) [5-1]
Growth inhibition rate (%) of barnyardgrass [5, 8]: 85%
Growth inhibition rate (%) of barnyardgrass [5, 14]: 70%

CS(=O)(=O)c1ccc(C(=O)C2C(=O)CCCC2=O)c(Cl)c1COCC(F)(F)F [Compound No. 3-31]
Growth inhibition rate (%) of crabgrass ([6]; comparison: 60 g a.i./ha wettable powder in 300 L/ha water with surfactant CITOWETT 0.3 vol %): 20%
Growth inhibition rate (%) of crabgrass ([6]; the present invention: 60 g a.i./ha wettable powder in 300 L/ha water with surfactant NIKKOL DDP-8 0.05 vol %): 80%

CCn1ncc(C(=O)c2ccc(S(C)(=O)=O)c(OCCOC)c2C)c1OC(C)OC(=O)OC (stereo not drawn) [Compound No. 4-320, 1-(1-ethyl-4-(3-(2-methoxyethoxy)-2-methyl-4-(methylsulfonyl)benzoyl)-1H-pyrazol-5-yloxy)ethyl methyl carbonate]
Growth inhibition rate (%) of crabgrass [7, 9]: 90%
Growth inhibition rate (%) of crabgrass [7, 15]: 90%
Growth inhibition rate (%) of crabgrass [7, 14]: 88%
